Test results from patent US20150105252A1, “SUBSTITUTED PYRAZOLES AS HERBICIDES” (E I DU PONT DE NEMOURS AND COMPANY, priority 2013, published 2015).

Key:
[1] = test system: barnyardgrass; experiment: Test A preemergence; format: in vivo, Echinochloa crus-galli; details: preemergence
How it was run: (§1)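 Visual injury ratings, 0 = no effect to 100 = complete control, taken about 10 days after treatment against untreated controls. Test chemicals, in a non-phytotoxic surfactant-containing solvent, were sprayed onto soil preemergence or onto one- to two-leaf plants (2–10 cm) postemergence, in loam–sand soil under greenhouse conditions.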

[2] = test system: crabgrass, large; experiment: Test A preemergence; format: in vivo, Digitaria sanguinalis; details: preemergence; for Crabgrass, Large plant response rating (0 to 100 scale): 125 g ai/ha, visual injury approx. 10 days after treatment; for Crabgrass, Large plant response rating: 500 g ai/ha
How it was run: as §1

[3] = test system: foxtail, giant; experiment: Test A preemergence; format: in vivo, Setaria faberii; details: preemergence; for Foxtail, Giant plant response rating (0 to 100 scale): 125 g ai/ha, visual injury approx. 10 days after treatment; for Foxtail, Giant plant response rating: 500 g ai/ha
How it was run: as §1

[4] = test system: morningglory; experiment: Test A preemergence; format: in vivo, Ipomoea spp.; details: preemergence; for Morningglory plant response rating (0 to 100 scale): 125 g ai/ha, visual injury approx. 10 days after treatment; for Morningglory plant response rating: 500 g ai/ha
How it was run: as §1

[5] = test system: pigweed; experiment: Test A preemergence; format: in vivo, Amaranthus retroflexus; details: preemergence; for Pigweed plant response rating (0 to 100 scale): 125 g ai/ha, visual injury approx. 10 days after treatment; for Pigweed plant response rating: 500 g ai/ha
How it was run: as §1

[6] = test system: velvetleaf; experiment: Test A preemergence; format: in vivo, Abutilon theophrasti; details: preemergence; for Velvetleaf plant response rating (0 to 100 scale): 125 g ai/ha, visual injury approx. 10 days after treatment; for Velvetleaf plant response rating: 500 g ai/ha
How it was run: as §1

[7] = test system: wheat; experiment: Test A preemergence; format: in vivo, Triticum aestivum; details: preemergence; for Wheat plant response rating (0 to 100 scale): 125 g ai/ha, visual injury approx. 10 days after treatment; for Wheat plant response rating: 500 g ai/ha
How it was run: as §1

[8] = test system: corn; experiment: Test A preemergence; format: in vivo, Zea mays; details: preemergence; for Corn plant response rating (0 to 100 scale): 125 g ai/ha, visual injury approx. 10 days after treatment; for Corn plant response rating: 500 g ai/ha
How it was run: as §1

[9] = test system: barnyardgrass; experiment: Test A postemergence; format: in vivo, Echinochloa crus-galli
How it was run: as §1

[10] = test system: crabgrass, large; experiment: Test A postemergence; format: in vivo, Digitaria sanguinalis
How it was run: as §1

[11] = test system: foxtail, giant; experiment: Test A postemergence; format: in vivo, Setaria faberii
How it was run: as §1

[12] = test system: morningglory; experiment: Test A postemergence; format: in vivo, Ipomoea spp.
How it was run: as §1

[13] = test system: pigweed; experiment: Test A postemergence; format: in vivo, Amaranthus retroflexus
How it was run: as §1

[14] = test system: velvetleaf; experiment: Test A postemergence; format: in vivo, Abutilon theophrasti
How it was run: as §1

[15] = test system: wheat; experiment: Test A postemergence; format: in vivo, Triticum aestivum
How it was run: as §1

[16] = test system: corn; experiment: Test A postemergence; format: in vivo, Zea mays
How it was run: as §1

[17] = test system: rice; experiment: Test B flood; format: in vivo, Oryza sativa; details: 250 g ai/ha, visual rating on 0 to 100 scale (0 no effect, 100 complete control), 13 to 15 days
Procedure: (§2) Seeds selected from rice (Oryza sativa), sedge, umbrella (small-flower umbrella sedge Cyperus difformis), ducksalad (Heteranthera limosa), and barnyardgrass (Echinochloa crus-galli) were grown to the 2-leaf stage for testing. At time of treatment, test pots were flooded to 3 cm above the soil surface, treated by application of test compounds directly to the paddy water, and then maintained at that water depth for the duration of the test.
(§3) Treated plants and controls were maintained in a greenhouse for 13 to 15 days, after which time all species were compared to controls and visually evaluated. Plant response ratings, summarized in Table B, are based on a scale of 0 to 100 where 0 is no effect and 100 is complete control. A dash (-) response means no test result.

[18] = test system: sedge, umbrella; experiment: Test B flood; format: in vivo, Cyperus difformis; details: 250 g ai/ha, visual rating on 0 to 100 scale (0 no effect, 100 complete control), 13 to 15 days
How it was run: (§4)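 Plants were grown to the 2-leaf stage and pots flooded to 3 cm above soil. Compounds were applied directly into the paddy water, with depth kept for the test. After 13–15 days in greenhouse, response was rated visually against controls on a 0 (no effect) to 100 (complete control) scale.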

[19] = test system: ducksalad; experiment: Test B flood; format: in vivo, Heteranthera limosa; details: 250 g ai/ha, visual rating on 0 to 100 scale (0 no effect, 100 complete control), 13 to 15 days
How it was run: as §4

[20] = test system: barnyardgrass; experiment: Test B flood; format: in vivo, Echinochloa crus-galli; details: 250 g ai/ha, visual rating on 0 to 100 scale (0 no effect, 100 complete control), 13 to 15 days
Procedure: as §2, §3

[21] = visual injury, 0 to 100 scale, approx. 10 days
[22] = Postemergence, 125 g ai/ha, 0 to 100 scale, 0 no effect, 100 complete control
[23] = Postemergence, 500 g ai/ha, 0 to 100 scale (0 no effect, 100 complete control)
[24] = 125 g ai/ha, visual injury, 0 to 100 scale, approx. 10 days
[25] = 500 g ai/ha, visual injury after approx. 10 days, 0 to 100 scale (0 no effect, 100 complete control)
[26] = visual injury after approx. 10 days, 0 to 100 scale (0 no effect, 100 complete control)
[27] = postemergence, 125 g ai/ha, about 10 days, visual rating on 0 to 100 scale (0 no effect, 100 complete control)

| SMILES | Crabgrass, Large plant response rating (0 to 100 scale) [2] | Foxtail, Giant plant response rating (0 to 100 scale) [3] | Morningglory plant response rating (0 to 100 scale) [4] | Pigweed plant response rating (0 to 100 scale) [5] | Velvetleaf plant response rating (0 to 100 scale) [6] | Wheat plant response rating (0 to 100 scale) [7] | Corn plant response rating (0 to 100 scale) [8] | Barnyardgrass plant response rating [9, 23] | Crabgrass, Large plant response rating [10, 23] | Foxtail, Giant plant response rating [11, 23] | Morningglory plant response rating [12, 23] | Pigweed plant response rating [13, 23] | Velvetleaf plant response rating [14, 23] | Wheat plant response rating [15, 23] | Corn plant response rating [16, 23] | Plant response rating, Rice [17] | Plant response rating, Sedge, Umbrella [18] | Plant response rating, Ducksalad [19] | Plant response rating, Barnyardgrass [20] | Barnyardgrass plant response rating [1, 24] | other results |
| --- | --- | --- | --- | --- | --- | --- | --- | --- | --- | --- | --- | --- | --- | --- | --- | --- | --- | --- | --- | --- | --- |
| CCONC(=O)c1cc(C)n(Cc2ccnc(C(F)(F)F)c2)n1 [Compound 231] | 0 | 0 | 0 | 0 | 0 | 0 | 0 | 0 | 10 | 0 | 0 | 0 | 0 | 0 | 10 | 0 | 0 | 0 | 0 | – | Barnyardgrass plant response rating (0 to 100 scale, 0 is no effect, 100 is complete control) ([1]; 125 g ai/ha, visual injury approx. 10 days after treatment): 0; Barnyardgrass plant response rating ([1]; 500 g ai/ha, visual injury, 0 to 100 scale (0 no effect, 100 complete control), approx. 10 days): 0; Crabgrass, Large plant response rating [2, 21]: 0; Foxtail, Giant plant response rating [3, 21]: 0; Morningglory plant response rating [4, 21]: 0; Pigweed plant response rating [5, 21]: 0; Velvetleaf plant response rating [6, 21]: 0; Wheat plant response rating [7, 21]: 0; Corn plant response rating [8, 21]: 0; Barnyardgrass plant response rating [9, 22]: 0; Crabgrass, Large plant response rating [10, 22]: 0; Foxtail, Giant plant response rating [11, 22]: 0; Morningglory plant response rating [12, 22]: 0; Pigweed plant response rating [13, 22]: 0; Velvetleaf plant response rating [14, 22]: 0; Wheat plant response rating [15, 22]: 0; Corn plant response rating [16, 22]: 0 |
| COCc1cc(C(=O)NC2CC2)nn1Cc1ccnc(C(F)(F)F)c1 [Compound 167] | 80 | 90 | 50 | 100 | 30 | 0 | 0 | 80 | 80 | 90 | 100 | 100 | 60 | 30 | 70 | 20 | 70 | 80 | 20 | 30 | Barnyardgrass plant response rating [1, 25]: 100; Crabgrass, Large plant response rating [2, 26]: 100; Foxtail, Giant plant response rating [3, 26]: 100; Morningglory plant response rating [4, 26]: 100; Pigweed plant response rating [5, 26]: 100; Velvetleaf plant response rating [6, 26]: 100; Wheat plant response rating [7, 26]: 50; Corn plant response rating [8, 26]: 40; Barnyardgrass plant response rating [9, 27]: 20; Crabgrass, Large plant response rating [10, 27]: 20; Foxtail, Giant plant response rating [11, 27]: 40; Morningglory plant response rating [12, 27]: 80; Pigweed plant response rating [13, 27]: 70; Velvetleaf plant response rating [14, 27]: 30; Wheat plant response rating [15, 27]: 0; Corn plant response rating [16, 27]: 10 |
| CCCNC(=O)c1cc(Br)n(Cc2cccc(C(F)(F)F)c2)n1 [Compound 159] | 10 | 0 | 0 | 10 | 0 | 0 | 0 | 30 | 30 | 30 | 40 | 60 | 70 | 20 | 20 | 0 | 0 | 0 | 0 | 0 | Barnyardgrass plant response rating [1, 25]: 20; Crabgrass, Large plant response rating [2, 26]: 90; Foxtail, Giant plant response rating [3, 26]: 30; Morningglory plant response rating [4, 26]: 0; Pigweed plant response rating [5, 26]: 60; Velvetleaf plant response rating [6, 26]: 0; Wheat plant response rating [7, 26]: 0; Corn plant response rating [8, 26]: 0; Barnyardgrass plant response rating [9, 27]: 0; Crabgrass, Large plant response rating [10, 27]: 20; Foxtail, Giant plant response rating [11, 27]: 20; Morningglory plant response rating [12, 27]: 30; Pigweed plant response rating [13, 27]: 50; Velvetleaf plant response rating [14, 27]: 60; Wheat plant response rating [15, 27]: 0; Corn plant response rating [16, 27]: 10 |
